Measured values published in article PMC6409996, “Pharmacodynamics and Pharmacokinetics of a New Type of Compound Lansoprazole Capsule in Gastric Ulcer Rats and Beagle Dogs: Importance of Adjusting Oxidative Stress and Inflammation” (Pharmaceutics, 2019).

Columns and labels:
[1] = system: glacial acetic-acid-induced gastric ulcer; experiment: Histopathological observation (H&E) of gastric mucosa, glacial acetic-acid-induced gastric ulcer; format: in vivo, rat; conditions: treatment with LSZ compared to the model group
Description: Cross-sections with a thickness of 4 µm were then papered for hematoxylin and eosin (H&E) staining. All specimens were assessed under a light microscopy.

H^+-K^+-ATP enzyme = H^+-K^+-ATP enzyme (Rattus norvegicus, UniProt P09626); experiment: Measurement of H+-K+-ATP enzyme activity in gastric ulcer rats; conditions: 2.7 mg/kg, seven consecutive days, mean ± SD, n = 6
Sequence of H^+-K^+-ATP enzyme (P09626 whole entry): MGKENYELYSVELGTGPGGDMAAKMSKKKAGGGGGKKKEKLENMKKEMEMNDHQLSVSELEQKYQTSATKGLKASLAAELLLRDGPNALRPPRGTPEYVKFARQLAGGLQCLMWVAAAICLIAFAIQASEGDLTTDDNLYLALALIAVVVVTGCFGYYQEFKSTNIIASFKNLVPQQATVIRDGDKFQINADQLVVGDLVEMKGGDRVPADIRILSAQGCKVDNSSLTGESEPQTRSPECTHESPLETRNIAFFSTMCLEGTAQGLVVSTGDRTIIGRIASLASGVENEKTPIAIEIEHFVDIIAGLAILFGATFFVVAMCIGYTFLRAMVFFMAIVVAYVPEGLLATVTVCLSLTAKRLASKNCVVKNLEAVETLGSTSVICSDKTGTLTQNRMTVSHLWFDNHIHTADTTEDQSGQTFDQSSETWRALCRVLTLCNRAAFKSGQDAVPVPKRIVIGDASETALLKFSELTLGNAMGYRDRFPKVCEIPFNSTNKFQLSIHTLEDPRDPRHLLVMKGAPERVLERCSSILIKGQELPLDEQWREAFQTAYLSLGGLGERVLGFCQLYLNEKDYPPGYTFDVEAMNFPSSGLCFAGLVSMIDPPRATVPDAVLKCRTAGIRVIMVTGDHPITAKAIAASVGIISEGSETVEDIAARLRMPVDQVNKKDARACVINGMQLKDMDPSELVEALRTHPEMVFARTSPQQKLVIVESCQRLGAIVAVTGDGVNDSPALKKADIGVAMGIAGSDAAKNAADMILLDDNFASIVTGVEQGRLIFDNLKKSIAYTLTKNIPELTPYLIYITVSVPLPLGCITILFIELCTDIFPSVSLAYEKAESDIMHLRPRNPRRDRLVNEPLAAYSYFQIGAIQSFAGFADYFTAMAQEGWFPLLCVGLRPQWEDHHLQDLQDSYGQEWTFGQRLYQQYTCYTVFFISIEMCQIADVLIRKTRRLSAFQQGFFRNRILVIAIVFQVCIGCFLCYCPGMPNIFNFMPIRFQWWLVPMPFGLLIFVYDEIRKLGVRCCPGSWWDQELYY
Sequence of H^+-K^+-ATP enzyme (P18598 whole entry partner): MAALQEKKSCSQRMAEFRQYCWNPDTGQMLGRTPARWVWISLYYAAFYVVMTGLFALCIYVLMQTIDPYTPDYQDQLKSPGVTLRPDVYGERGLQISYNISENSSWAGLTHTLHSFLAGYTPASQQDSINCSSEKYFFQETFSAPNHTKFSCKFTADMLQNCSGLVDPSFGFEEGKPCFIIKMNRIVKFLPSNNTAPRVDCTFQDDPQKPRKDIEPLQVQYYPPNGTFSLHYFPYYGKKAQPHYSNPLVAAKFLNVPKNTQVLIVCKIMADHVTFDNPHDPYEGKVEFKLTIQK

[2] = Stability of lansoprazole in dog plasma (method validation); format: in vitro ADME; conditions: n = 3
From the text: The method was fully validated in accordance with the US Food and Drug Administration (FDA) guidelines. Specificity, linearity, LLOQ, precision, accuracy, recovery, matrix effect and stability were all experimentally investigated.

[3] = capsules containing enteric-coated granules; cited from earlier work
SOD = experiment: Measurement of SOD level in gastric ulcer rats; conditions: 2.7 mg/kg, seven consecutive days, mean ± SD, n = 6
MDA = experiment: Measurement of MDA (lipid peroxidation, TBARS) in gastric ulcer rats; conditions: 2.7 mg/kg, seven consecutive days, mean ± SD, n = 6
[4] = system: glacial acetic-acid-induced gastric ulcer; experiment: Macroscopic gastric ulcer assay in the glacial acetic-acid-induced gastric ulcer model; format: in vivo, rat
Description: The gastric ulcer index (UI) was the total area of ulcer. The gastroprotection (%) was calculated and used for macroscopic gastric ulcer assay.

COX-2 [5] = experiment: Immunohistochemistry evaluation of gastric tissue for COX-2; format: in vivo, rat; conditions: the LSZ group, p < 0.01
Description: (§1) Gastric tissues were post fixed in 4% paraformaldehyde overnight at 4 °C before routine paraffin sections (4 μm) were prepared for immunohistochemical staining. Paraffin-embedded slices of tissues were incubated overnight at 4 °C with primary rabbit anti-VEGF and anti-COX-2 antibody (1:200, Thermo). After rinsing, sections were incubated in biotinylated goat anti-rabbit IgG (1:200, Maixin) at 37 °C for 30 min and were subsequently incubated in streptavidin-peroxidase conjugate (1:200, Maixin) at 37 °C for 30 min. The sections were developed with 3,3′-diaminobenzidine (DAB) in a chromogen solution and counter-stained with hematoxylin. Images were obtained using an Olympus BX-61microscope (Tokyo, Japan).

COX-2 [6] = experiment: Western blotting determination of gastric tissue for COX-2; format: in vivo, rat; conditions: LSZ versus model group, p < 0.01
Description: (§2) The homogenate was centrifuged at a force of 12,000 g for 30 min at 4 °C and protein qualification was carried out using a BCA kit. The total protein extract (25 μg per lane) was separated on SDS-polyacrylamide gels and transferred onto PVDF membranes. Nonspecific binding sites on the membrane were blocked by PBS containing 0.1% Tween-20 with 5% bovine serum albumin, which was followed by incubation with rabbit polyclonal primary antibodies against VEGF and COX-2 and β-actin overnight at 4 °C. Immunoreactive bands were visualized using the enhanced chemiluminescent kit. Bands were measured using the Quality One analysis software and the density of each band was normalized to β-actin.

VEGF [7] = experiment: Western blotting determination of gastric tissue for VEGF; format: in vivo, rat; conditions: LSZ versus model group, p < 0.01
Description: as §2

VEGF [8] = experiment: Immunohistochemistry evaluation of gastric tissue for VEGF; format: in vivo, rat; conditions: the LSZ group, p < 0.01
Description: as §1

[9] = nominal concentration 10 ng·mL^−1
[10] = nominal concentration 125 ng·mL^−1
[11] = nominal concentration 2000 ng·mL^−1

Stability in dog plasma, 3 Freeze-Thaw Cycles [2, 9]: 9.64
Stability in dog plasma, 45 Days, −20 °C [2, 9]: 9.11
Stability in dog plasma, 10 h, 4 °C [2, 9]: 9.35
Stability in dog plasma, 24 h, Room Temperature [2, 9]: 10.00
Stability in dog plasma, 3 Freeze-Thaw Cycles [2, 10]: 119.79
Stability in dog plasma, 45 Days, −20 °C [2, 10]: 123.82
Stability in dog plasma, 10 h, 4 °C [2, 10]: 124.51
Stability in dog plasma, 24 h, Room Temperature [2, 10]: 132.80
Stability in dog plasma, 3 Freeze-Thaw Cycles [2, 11]: 2128.46
Stability in dog plasma, 45 Days, −20 °C [2, 11]: 1853.17
Stability in dog plasma, 10 h, 4 °C [2, 11]: 2088.22
Stability in dog plasma, 24 h, Room Temperature [2, 11]: 2024.38
SMILES: Cc1c(OCC(F)(F)F)ccnc1C[S+]([O-])c1nc2ccccc2[nH]1 (stereo not drawn) [LSZ, Lansoprazole]
Histological evaluation of gastric mucosa (submucosal edema, epithelial cell loss) [1]: protective effect on gastric mucosa
H^+-K^+-ATP enzyme activity (H^+-K^+-ATP enzyme): 7.91 ± 0.76 mmol/g/h
Time of peak concentration after oral administration [3]: ≤ 1 ± 2 h
SOD (SOD): 170.12 ± 13.19 μmol*g^−1 Pro
MDA (MDA): 75.32 ± 10.77 μmol*g^−1 Pro
Gastroprotection (%) ([4]; rats, intragastric, 2.7 mg/kg, seven consecutive days): 29.8%
UI ([4]; rats, intragastric, 2.7 mg/kg, seven consecutive days, UI = total area of ulcer, mean ± SD, n = 6): 28.30 ± 7.29
Macroscopic gastric lesions ([4]; treatment with LSZ compared to the model group): significantly reduced
Expression of COX-2 (immunohistochemistry) (COX-2 [5]): increased expression
Expression of COX-2 protein (Western blot) (COX-2 [6]): significantly increase
Expression of VEGF protein (Western blot) (VEGF [7]): significantly increase
Expression of VEGF (immunohistochemistry) (VEGF [8]): increased expression
